Assay results: patent publication US6296785A, “Indeno-fused photochromic naphthopyrans” (PPG Industries Ohio, Inc., priority 2000, dated 2001)
Each block holds one molecule with its values, some of them ahead of it.

Key:
Type in all cases: physicochemical
[1] = Relative ΔOD at Saturation Test; conditions: ΔOD at saturation (Band A)/ΔOD at saturation (Band B)×100
Text: In accordance with the present invention, it has now been discovered that certain novel indeno[2,1-f]naphtho[1,2-b]pyrans having two absorption bands in the activated (colored) state, an acceptable fade rate, high activated intensity, a high coloration rate and a rating of 80 or higher in the Relative ΔOD at Saturation Test may be prepared. The Relative ΔOD at Saturation Test is described in Example 21. The ratings of the test are defined herein as the result obtained when the optical density of band "A" is divided by the optical density of band "B" and multiplied by 100. It is believed that compounds having a rating of 80 or higher are most valuable for formulating neutral grays, greens and browns for commercial photochromic ophthalmic eyeware.
(§1) Testing was done with the photochromic compounds described in Examples 1 through 20 and Comparative Examples 1 through 3 in the following manner. A quantity of photochromic compound calculated to yield a 1.5×10^-3 molal solution was added to a flask containing 50 grams of a monomer blend of 4 parts ethoxylated bisphenol A dimethacrylate (BPA 2EO DMA), 1 part poly(ethylene glycol) 600 dimethacrylate, and 0.033 weight percent 2,2'-azobis(2-methyl propionitrile) (AIBN). The photochromic compound was dissolved into the monomer blend by stirring and gentle heating, if necessary. After a clear solution was obtained, it was poured into a flat sheet mold having the interior dimensions of 2.2 mm×6 inches (15.24 cm)×6 inches (15.24 cm). The mold was sealed and placed in a horizontal air flow, programmable oven programmed to increase the temperature from 40° C. to 95° C. over a 5 hour interval, hold the temperature at 95° C. for 3 hours, lower it to 60° C. over a 2 hour interval and then hold it at 60° C. for 16 hours. After the mold was opened, the polymer sheet was cut using a diamond blade saw into 2 inch (5.1 centimeters) test squares.
(§2) The photochromic test squares of Part A were tested for photochromic response rates on an optical bench. Prior to testing on the optical bench, the photochromic test squares were exposed to 365 nanometer ultraviolet light for about 15 minutes to activate the photochromic compounds and then placed into a 76° C. oven for about 15 minutes to bleach the photochromic compounds. The test squares were then cooled to room temperature, exposed to fluorescent room lighting for at least 2 hours and then kept covered for at least 2 hours prior to testing on an optical bench maintained at 72° F. (22.2° C.). The bench was fitted with a 250 watt Xenon arc lamp, a remote controlled shutter, a copper sulfate bath acting as a heat sink for the arc lamp, a Schott WG-320 nm cut-off filter which removes short wavelength radiation; neutral density filter(s) and a sample holder in which the square to be tested was inserted. The power output of the optical bench, i.e., the dosage of light that the sample lens would be exposed to, was calibrated with a photochromic test square used as a reference standard. […] The UV-A detector was placed into the sample holder and the light output was measured. Adjustments to the power output were made by increasing or decreasing the lamp wattage or by adding or removing neutral density filters in the light path.
Change in optical density (ΔOD) was determined by inserting a test square in the bleached state into the sample holder, adjusting the transmittance scale to 100%, opening the shutter from the Xenon lamp to provide ultraviolet radiation to change the test square from the bleached state to an activated (i.e., darkened) state, measuring the transmittance in the activated state, and calculating the change in optical density according to the formula: ΔOD=log(100/% Ta), where % Ta is the percent transmittance in the activated state and the logarithm is to the base 10. […]

[2] = photochromic response of test squares on an optical bench (sensitivity, saturation optical density, bleach rate); conditions: for ΔOD @ Saturation (Band A) / ΔOD @ Saturation (Band B): UV exposure 15 minutes; for ΔOD @ Saturation (Band A) / Sensitivity ΔOD/MIN (Band A) / ΔOD @ Saturation (Band B) / Sensitivity ΔOD/MIN (Band B): 72° F. (22.2° C.), polymer test square; for Sensitivity ΔOD/MIN (Band A) / Sensitivity ΔOD/MIN (Band B): first five (5) seconds of UV exposure, expressed per minute; for Bleach Rate T 1/2: measured at band B, room temperature (72° F., 22.2° C.) after removal of activating light
Procedure: as §1, §2
A monitoring, collimated beam of light from a tungsten lamp was passed through the square at a small angle (approximately 30°) normal to the square. After passing through the square, the light from the tungsten lamp was directed to a detector through Spectral Energy Corp. GM-200 monochromator set at the previously determined visible lambda max of the photochromic compound being measured. The output signals from the detector were processed by a radiometer.
Change in optical density (ΔOD) was determined by inserting a test square in the bleached state into the sample holder, adjusting the transmittance scale to 100%, opening the shutter from the Xenon lamp to provide ultraviolet radiation to change the test square from the bleached state to an activated (i.e., darkened) state, measuring the transmittance in the activated state, and calculating the change in optical density according to the formula: ΔOD=log(100/% Ta), where % Ta is the percent transmittance in the activated state and the logarithm is to the base 10.
The ΔOD/Min, which represents the sensitivity of the photochromic compound's response to UV light, was measured over the first five (5) seconds of UV exposure, then expressed on a per minute basis. The saturation optical density (ΔOD@ Saturation) was taken under identical conditions as the ΔOD/Min, except UV exposure was continued for 15 minutes. […]

[3] = lambda max (Vis) of activated photochromic test squares in a Varian Cary 3 uv-visible spectrophotometer; conditions: activated form in test square
Procedure: as §1
The lambda max (Vis) is the wavelength in the visible spectrum at which the maximum absorption of the activated (colored) form of the photochromic compound in a test square occurs. The lambda max (Vis) wavelengths reported in Table 1 were determined by testing the photochromic test square polymerizates of Part A in a Varian Cary 3 uv-visible spectrophotometer. The bleach rate (T 1/2) is the time interval in seconds for the absorbance of the activated form of the photochromic compound in the test squares to read one half the highest absorbance at room temperature (72° F., 22.2° C.) after removal of the source of activating light.
For each lambda max visible, the corresponding optical density (Δ OD/Min and Δ OD at saturation) for the desired compounds of the Examples and Comparative Examples are tabulated in Table 1 for the two bands (A and B) of peak absorption for each compound. Table 1 also includes the bleach rate (T 1/2) for each of the compounds as measured at band B. The ratings of the Relative Δ OD at Saturation Test for the bands A and B of each of the Examples and Comparative Examples are calculated as follows: Δ OD at saturation (Band A)/Δ OD at saturation (Band B)×100.

Structure (SMILES): COc1ccc(C2(c3ccc(N4CCOCC4)cc3)C=Cc3c4c(c5cc(OC)c(OC)cc5c3O2)-c2ccccc2C4c2ccccc2)cc1 (centres unmarked) [Example 8, 3-(4-methoxyphenyl)-3-(4-morpholinophenyl)-6,7-dimethoxy-13-phenyl-3H, 13H-indeno[2,1-f]naphtho[1,2-b]pyran]
Relative ΔOD at Saturation (rating) [1]: 98
ΔOD @ Saturation (Band A) [2]: 0.43
Sensitivity ΔOD/MIN (Band A) [2]: 0.14 ΔOD/MIN
ΔOD @ Saturation (Band B) [2]: 0.44
Sensitivity ΔOD/MIN (Band B) [2]: 0.18 ΔOD/MIN
Bleach Rate T 1/2 [2]: 2.98 min
λ MAX Vis (Band A) [3]: 484 nm
λ MAX Vis (Band B) [3]: 603 nm

Structure (SMILES): COc1ccc(C2(c3ccc(N4CCOCC4)cc3)C=Cc3c4c(c5cc(OC)c(OC)cc5c3O2)-c2ccccc2C4(C)O)cc1 (centres unmarked) [Example 19, 3-(4-methoxyphenyl)-3-(4-morpholinophenyl)-6,7-dimethoxy-13-hydroxy-13-methyl-3H,13H-indeno[2,1-f]naphtho[1,2-b]pyran]
Relative ΔOD at Saturation (rating) [1]: 97
ΔOD @ Saturation (Band A) [2]: 0.34
Sensitivity ΔOD/MIN (Band A) [2]: 0.18 ΔOD/MIN
ΔOD @ Saturation (Band B) [2]: 0.35
Sensitivity ΔOD/MIN (Band B) [2]: 0.22 ΔOD/MIN
Bleach Rate T 1/2 [2]: 1.63 min
λ MAX Vis (Band A) [3]: 481 nm
λ MAX Vis (Band B) [3]: 603 nm

Structure (SMILES): CCC1(CC)c2cc(OC)c(OC)cc2-c2c1c1c(c3cc(OC)c(OC)cc23)OC(c2ccc(OC)cc2)(c2ccc(OC)cc2)C=C1 [Example 6, 3,3-di(4-methoxyphenyl)-6,7,10,11-tetramethoxy-13,13-diethyl-3H,13H-indeno[2,1-f]naphtho[1,2-b]pyran]
Relative ΔOD at Saturation (rating) [1]: 140
ΔOD @ Saturation (Band A) [2]: 1.02
Sensitivity ΔOD/MIN (Band A) [2]: 0.46 ΔOD/MIN
ΔOD @ Saturation (Band B) [2]: 0.73
Sensitivity ΔOD/MIN (Band B) [2]: 0.37 ΔOD/MIN
Bleach Rate T 1/2 [2]: 5.17 min
λ MAX Vis (Band A) [3]: 440 nm
λ MAX Vis (Band B) [3]: 608 nm

Structure (SMILES): CCC1(O)c2ccccc2-c2c1c1c(c3cc(OC)c(OC)cc23)OC(c2ccccc2)(c2ccc(N3CCOCC3)cc2)C=C1 (centres unmarked) [Example 14, 3-(4-morpholinophenyl)-3-phenyl-6,7-dimethoxy-13-hydroxy-13-ethyl-3H,13H-indeno[2,1,-f]naphtho[1,2-b]pyran]
Relative ΔOD at Saturation (rating) [1]: 103
ΔOD @ Saturation (Band A) [2]: 0.41
Sensitivity ΔOD/MIN (Band A) [2]: 0.24 ΔOD/MIN
ΔOD @ Saturation (Band B) [2]: 0.40
Sensitivity ΔOD/MIN (Band B) [2]: 0.22 ΔOD/MIN
Bleach Rate T 1/2 [2]: 1.8 min
λ MAX Vis (Band A) [3]: 485 nm
λ MAX Vis (Band B) [3]: 600 nm

Results, then the molecule that gave them:

Relative ΔOD at Saturation (rating) [1]: 105
ΔOD @ Saturation (Band A) [2]: 0.39
Sensitivity ΔOD/MIN (Band A) [2]: 0.27 ΔOD/MIN
ΔOD @ Saturation (Band B) [2]: 0.37
Sensitivity ΔOD/MIN (Band B) [2]: 0.25 ΔOD/MIN
Bleach Rate T 1/2 [2]: 1.42 min
λ MAX Vis (Band A) [3]: 482 nm
λ MAX Vis (Band B) [3]: 634 nm
Structure (SMILES): CCCCC1(O)c2cc(OC)c(OC)cc2-c2c1c1c(c3cc(OC)c(OC)cc23)OC(c2ccc(OC)cc2)(c2ccc(N3CCOCC3)cc2)C=C1 (centres unmarked) [Example 13, 3-(4-methoxyphenyl)-3-(4-morpholinophenyl)-6,7,10,11-tetramethoxy-13-hydroxy-13-butyl-3H,13H-indeno[2,1-f]naphtho[1,2-b]pyran]

Relative ΔOD at Saturation (rating) [1]: 106
ΔOD @ Saturation (Band A) [2]: 0.66
Sensitivity ΔOD/MIN (Band A) [2]: 0.28 ΔOD/MIN
ΔOD @ Saturation (Band B) [2]: 0.62
Sensitivity ΔOD/MIN (Band B) [2]: 0.25 ΔOD/MIN
Bleach Rate T 1/2 [2]: 3.05 min
λ MAX Vis (Band A) [3]: 482 nm
λ MAX Vis (Band B) [3]: 581 nm
Structure (SMILES): COc1ccc(C2(c3ccc(OC)cc3)C=Cc3c4c(c5c(OC)c(OC)c(OC)cc5c3O2)-c2ccccc2C4c2ccccc2)cc1 (centres unmarked) [Example 11, 3,3-di(4-methoxyphenyl)-6,7,8-trimethoxy-13-phenyl-3H,13H-indeno[2,1-f]naphtho[1,2-b]pyran]

Relative ΔOD at Saturation (rating) [1]: 106
ΔOD @ Saturation (Band A) [2]: 0.37
Sensitivity ΔOD/MIN (Band A) [2]: 0.22 ΔOD/MIN
ΔOD @ Saturation (Band B) [2]: 0.35
Sensitivity ΔOD/MIN (Band B) [2]: 0.19 ΔOD/MIN
Bleach Rate T 1/2 [2]: 1.88 min
λ MAX Vis (Band A) [3]: 485 nm
λ MAX Vis (Band B) [3]: 600 nm
Structure (SMILES): CCCCC1(O)c2ccccc2-c2c1c1c(c3cc(OC)c(OC)cc23)OC(c2ccccc2)(c2ccc(N3CCOCC3)cc2)C=C1 (centres unmarked) [Example 16, 3-(4-morpholinophenyl)-3-phenyl-6,7-dimethoxy-13-hydroxy-13-butyl-3H,13H-indeno[2,1,-f]naphtho[1,2-b]pyran]
